Results on 42 molecules are retold here after patent US20230123334A1, “AMINO LIPID COMPOUND, PREPARATION METHOD THEREFOR, AND APPLICATION THEREOF” (SHENZHEN SHENXIN BIOTECHNOLOGY CO., LTD., priority 2020, published 2023).

The test system of the experiment is HEK293 cells. Briefly: Preliminary screening as mRNA vectors, EGFP mRNA transfection of HEK293 cells. It counts as cell-based. The settings on record: EGFP mRNA 50 ng per well, 96-well plates; percentage of GFP fluorescent cells relative to total number of cells (Hoechst). The essentials: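 Screening format: EGFP mRNA transfection (50 ng/well) into HEK293 in 10% FBS-supplemented DMEM. Percent green fluorescent cells, normalised to Hoechst nuclear count, gave the value; Lipofectamine2000 was the reference transfectant.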

With `CCCCCCCCCCCCSc1nc(NCCN(C)C)nc(N(CCCCCCCCCCCC)CCCCCCCCCCCC)n1` [D1S12^2N12], the “Absolute mRNA transfection efficiency in HEK293 cells” value (from here on “Absolute mRNA transfection efficiency”) was determined as 2.6%. As to `CCCCCCCCCCCCCCSc1nc(NCCN(C)C)nc(N(CCCCCCCCCCCC)CCCCCCCCCCCC)n1` [D1S14^2N12], the “Absolute mRNA transfection efficiency” value turned out to be 0.1%.

For the molecule `CCCCCCCCCCCCCCCSc1nc(NCCN(C)C)nc(N(CCCCCCCCCCCC)CCCCCCCCCCCC)n1` [D1S15^2N12], the “Absolute mRNA transfection efficiency” value amounted to 0.3%. `CCCCCCCCCCCCCCCCSc1nc(NCCN(C)C)nc(N(CCCCCCCCCCCC)CCCCCCCCCCCC)n1` [D1S16^2N12]: the “Absolute mRNA transfection efficiency” value was determined as 0.0%. For `CCCCCCCCCCCCCCCCCCSc1nc(NCCN(C)C)nc(N(CCCCCCCCCCCC)CCCCCCCCCCCC)n1` [D1S18^2N12], the “Absolute mRNA transfection efficiency” value stood at 0.0%. Next, `CCCCCCCCCCCCN(CCCCCCCCCCCC)c1nc(NCCN2CCOCC2)nc(SCCCCCC)n1` [D2S6^2N12]: 0.0%. Under `CCCCCCCCCCCCN(CCCCCCCCCCCC)c1nc(NCCN2CCOCC2)nc(SCCCCCCC)n1` [D2S7^2N12] stands 0.4%. Under `CCCCCCCCCCCCN(CCCCCCCCCCCC)c1nc(NCCN2CCOCC2)nc(SCCCCCCCC)n1` [D2S8^2N12] stands 0.1%; under `CCCCCCCCCCCCN(CCCCCCCCCCCC)c1nc(NCCN2CCOCC2)nc(SCCCCCCCCC)n1` [D2S9^2N12], 0.1%. As to `CCCCCCCCCCCCN(CCCCCCCCCCCC)c1nc(NCCN2CCOCC2)nc(SCCCCCCCCCC)n1` [D2S10^2N12], the “Absolute mRNA transfection efficiency” value was determined as 0.0%. Under `CCCCCCCCCCCCN(CCCCCCCCCCCC)c1nc(NCCN2CCOCC2)nc(SCCCCCCCCCCC)n1` [D2S11^2N12] stands 0.3%; under `CCCCCCCCCCCCSc1nc(NCCN2CCOCC2)nc(N(CCCCCCCCCCCC)CCCCCCCCCCCC)n1` [D2S12^2N12], 0.1%; under `CCCCCCCCCCCCCCSc1nc(NCCN2CCOCC2)nc(N(CCCCCCCCCCCC)CCCCCCCCCCCC)n1` [D2S14^2N12], 0.0%. Under `CCCCCCCCCCCCCCCSc1nc(NCCN2CCOCC2)nc(N(CCCCCCCCCCCC)CCCCCCCCCCCC)n1` [D2S15^2N12] stands 0.4%; under `CCCCCCCCCCCCCCCCSc1nc(NCCN2CCOCC2)nc(N(CCCCCCCCCCCC)CCCCCCCCCCCC)n1` [D2S16^2N12], 0.7%. For `CCCCCCCCCCCCCCCCCCSc1nc(NCCN2CCOCC2)nc(N(CCCCCCCCCCCC)CCCCCCCCCCCC)n1` [D2S18^2N12], the “Absolute mRNA transfection efficiency” value worked out at 0.0%.

With `CCCCCCCCCCCCN(CCCCCCCCCCCC)c1nc(NCCN2CCCC2)nc(SCCCCCC)n1` [D3S6^2N12], the “Absolute mRNA transfection efficiency” value is 0.4%. Under `CCCCCCCCCCCCN(CCCCCCCCCCCC)c1nc(NCCN2CCCC2)nc(SCCCCCCC)n1` [D3S7^2N12] stands 0.4%.

On to `CCCCCCCCCCCCN(CCCCCCCCCCCC)c1nc(NCCN2CCCC2)nc(SCCCCCCCC)n1` [D3S8^2N12], for which the “Absolute mRNA transfection efficiency” value is given as 0.9%.

As to `CCCCCCCCCCCCN(CCCCCCCCCCCC)c1nc(NCCN2CCCC2)nc(SCCCCCCCCC)n1` [D3S9^2N12], the “Absolute mRNA transfection efficiency” value is on record as 1.3%. Under `CCCCCCCCCCCCN(CCCCCCCCCCCC)c1nc(NCCN2CCCC2)nc(SCCCCCCCCCC)n1` [D3S10^2N12] stands 0.1%. Under `CCCCCCCCCCCCN(CCCCCCCCCCCC)c1nc(NCCN2CCCC2)nc(SCCCCCCCCCCC)n1` [D3S11^2N12] stands 0.0%; under `CCCCCCCCCCCCSc1nc(NCCN2CCCC2)nc(N(CCCCCCCCCCCC)CCCCCCCCCCCC)n1` [D3S12^2N12], 2.2%; under `CCCCCCCCCCCCCCSc1nc(NCCN2CCCC2)nc(N(CCCCCCCCCCCC)CCCCCCCCCCCC)n1` [D3S14^2N12], 0.2%. Under `CCCCCCCCCCCCCCCSc1nc(NCCN2CCCC2)nc(N(CCCCCCCCCCCC)CCCCCCCCCCCC)n1` [D3S15^2N12] stands 1.7%; under `CCCCCCCCCCCCCCCCSc1nc(NCCN2CCCC2)nc(N(CCCCCCCCCCCC)CCCCCCCCCCCC)n1` [D3S16^2N12], 0.2%.

With `CCCCCCCCCCCCCCCCCCSc1nc(NCCN2CCCC2)nc(N(CCCCCCCCCCCC)CCCCCCCCCCCC)n1` [D3S18^2N12], the “Absolute mRNA transfection efficiency” value is recorded as 0.1%.

Turning to `CCCCCCCCCCCCN(CCCCCCCCCCCC)c1nc(NCCN2CCCCC2)nc(SCCCCCC)n1` [D4S6^2N12], the “Absolute mRNA transfection efficiency” value came out at 2.2%. Next, `CCCCCCCCCCCCN(CCCCCCCCCCCC)c1nc(NCCN2CCCCC2)nc(SCCCCCCC)n1` [D4S7^2N12]: 1.0%; `CCCCCCCCCCCCN(CCCCCCCCCCCC)c1nc(NCCN2CCCCC2)nc(SCCCCCCCC)n1` [D4S8^2N12]: 1.1%; `CCCCCCCCCCCCN(CCCCCCCCCCCC)c1nc(NCCN2CCCCC2)nc(SCCCCCCCCC)n1` [D4S9^2N12]: 0.1%. Under `CCCCCCCCCCCCN(CCCCCCCCCCCC)c1nc(NCCN2CCCCC2)nc(SCCCCCCCCCC)n1` [D4S10^2N12] stands 0.1%; under `CCCCCCCCCCCCN(CCCCCCCCCCCC)c1nc(NCCN2CCCCC2)nc(SCCCCCCCCCCC)n1` [D4S11^2N12], 0.5%. Take `CCCCCCCCCCCCSc1nc(NCCN2CCCCC2)nc(N(CCCCCCCCCCCC)CCCCCCCCCCCC)n1` [D4S12^2N12]: the “Absolute mRNA transfection efficiency” value stood at 0.5%.

For `CCCCCCCCCCCCCCSc1nc(NCCN2CCCCC2)nc(N(CCCCCCCCCCCC)CCCCCCCCCCCC)n1` [D4S14^2N12], the “Absolute mRNA transfection efficiency” value amounted to 0.2%. Next, `CCCCCCCCCCCCCCCSc1nc(NCCN2CCCCC2)nc(N(CCCCCCCCCCCC)CCCCCCCCCCCC)n1` [D4S15^2N12]: 0.2%. Under `CCCCCCCCCCCCCCCCSc1nc(NCCN2CCCCC2)nc(N(CCCCCCCCCCCC)CCCCCCCCCCCC)n1` [D4S16^2N12] stands 0.3%; under `CCCCCCCCCCCCCCCCCCSc1nc(NCCN2CCCCC2)nc(N(CCCCCCCCCCCC)CCCCCCCCCCCC)n1` [D4S18^2N12], 0.3%.

As to `CCCCCCCCCCCCN(CCCCCCCCCCCC)c1nc(NCCN2CCN(C)CC2)nc(SCCCCCC)n1` [D5S6^2N12], the “Absolute mRNA transfection efficiency” value is 0.3%. Next, `CCCCCCCCCCCCN(CCCCCCCCCCCC)c1nc(NCCN2CCN(C)CC2)nc(SCCCCCCC)n1` [D5S7^2N12]: 0.2%; `CCCCCCCCCCCCN(CCCCCCCCCCCC)c1nc(NCCN2CCN(C)CC2)nc(SCCCCCCCC)n1` [D5S8^2N12]: 0.9%; `CCCCCCCCCCCCN(CCCCCCCCCCCC)c1nc(NCCN2CCN(C)CC2)nc(SCCCCCCCCC)n1` [D5S9^2N12]: 0.4%.
